Reference: patent US9777003B2, “Tricyclic heterocycles as bet protein inhibitors” (Incyte Corporation, priority 2013, dated 2017)
Counter-ions that a name gives are not always drawn.

Key:
BRD4-BD1 = BRD4-BD1 (Homo sapiens (Human), UniProt O60885); experiment: BRD4 AlphaScreen assay, BRD4-BD1; assay type: binding; settings: biotin-labeled tetra-acetylated histone H4 peptide, 75 min, room temperature, read-out: BRD4 BD-1 enzyme IC50
In short: (§1)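 AlphaScreen displacement of 50 nM biotin-tetra-acetylated H4 peptide from 3.8 nM BRD4-BD1 (1.25% DMSO) or 20 nM BRD4-BD2 (0.83% DMSO) in HEPES pH 7.4 buffer, 75 min RT. Streptavidin donor/GSH acceptor beads added, 75 min dark; IC50 from log-concentration curve fit.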

BRD4-BD2 = BRD4-BD2 (Homo sapiens (Human), UniProt O60885); experiment: BRD4 AlphaScreen assay, BRD4-BD2; assay type: binding; settings: biotin-labeled tetra-acetylated histone H4 peptide, 75 min, room temperature, read-out: BRD4 BD-2 enzyme IC50
In short: as §1

Row | IC50 (BRD4-BD1) [nM] | IC50 (BRD4-BD2) [nM] | Structure (SMILES)
1 | ≤ 100 | ≤ 100 | COc1ccc(Cn2c(C)cc3c2ccc2nnc(C)n23)cc1 [Example 34, 6-(4-methoxybenzyl)-1,7-dimethyl-6H-pyrrolo[2,3-e][1,2,4]triazolo[4,3-a]pyridine]
2 | 100 to 1000 | ≤ 100 | Cc1nnc2ccc3c(ccn3C(C)c3ccccc3)n12 (racemic) [Example 4, 1-methyl-6-(1-phenylethyl)-6H-pyrrolo[2,3-e][1,2,4]triazolo[4,3-a]pyridine]
3 | 1000 to 10000 | 100 to 1000 | Cc1nnc2ccc3c(cc(Cn4ccnc4)n3Cc3ccccc3)n12 [Example 57, 6-benzyl-7-(1H-imidazol-1-ylmethyl)-1-methyl-6H-pyrrolo[2,3-e][1,2,4]triazolo[4,3-a]pyridine]
4 | ≤ 100 | ≤ 100 | CNC(=O)Nc1cc2c(cc(C)n2Cc2cc(Cl)cc(CN3CCCC3)c2)n2c(C)nnc12 [Example 142, N-{6-[3-Chloro-5-(pyrrolidin-1-ylmethyl)benzyl]-1,7-dimethyl-6H-pyrrolo[2,3-e][1,2,4]triazolo[4,3-a]pyridin-4-yl}-N′-methylurea bis(trifluoroacetate) Salt]
5 | ≤ 100 | ≤ 100 | CC(=O)Nc1cc2c(cc(C)n2Cc2ccccc2)n2c(C)nnc12 [Example 266, N-(6-Benzyl-1,7-dimethyl-6H-pyrrolo[2,3-e][1,2,4]triazolo[4,3-a]pyridin-4-yl)acetamide]
6 | ≤ 100 | ≤ 100 | CC(=O)N1CC(CC#N)(n2ccc(-c3cc4c(ccc5nnc(C)n54)n3Cc3ccccc3)n2)C1 [Example 91, {1-acetyl-3-[3-(6-benzyl-1-methyl-6H-pyrrolo[2,3-e][1,2,4]triazolo[4,3-a]pyridin-7-yl)-1H-pyrazol-1-yl]azetidin-3-yl}acetonitrile]
7 | ≤ 100 | ≤ 100 | Cc1cc2c(cc(NC(=O)C(C)C)c3nnc(C)n32)n1Cc1ccccc1 [Example 270, N-(6-Benzyl-1,7-dimethyl-6H-pyrrolo[2,3-e][1,2,4]triazolo[4,3-a]pyridin-4-yl)isobutyramide]
8 | ≤ 100 | ≤ 100 | Cc1nnc2ccc3c(cc(-c4ncco4)n3Cc3cc(Cl)cc(CN4CC(C)(C)C4)c3)n12 [Example 196, 6-{3-Chloro-5-[(3,3-dimethylazetidin-1-yl)methyl]benzyl}-1-methyl-7-(1,3-oxazol-2-yl)-6H-pyrrolo[2,3-e][1,2,4]triazolo[4,3-a]pyridine bis(trifluoroacetate) Salt]
9 | ≤ 100 | ≤ 100 | Cc1nnc2ccc3c(cc(-c4ccn(C5CN(CCC#N)C5)n4)n3Cc3cccc(Cl)c3)n12 [Example 181, 3-(3-{3-[6-(3-Chlorobenzyl)-1-methyl-6H-pyrrolo[2,3-e][1,2,4]triazolo[4,3-a]pyridin-7-yl]-1H-pyrazol-1-yl}azetidin-1-yl)propanenitrile bis(trifluoroacetate) Salt]
10 | ≤ 100 | ≤ 100 | CCNC(=O)c1cc2c(ccc3nnc(C)n32)n1Cc1ccccc1 [Example 59, 6-benzyl-N-ethyl-1-methyl-6H-pyrrolo[2,3-e][1,2,4]triazolo[4,3-a]pyridine-7-carboxamide]
11 | ≤ 100 | ≤ 100 | CCS(=O)(=O)N1CC(n2ccc(-c3cc4c(ccc5nnc(C)n54)n3Cc3cccc(Cl)c3)n2)C1 [Example 166, 6-(3-Chlorobenzyl)-7-{1-[1-(ethylsulfonyl)azetidin-3-yl]-1H-pyrazol-3-yl}-1-methyl-6H-pyrrolo[2,3-e][1,2,4]triazolo[4,3-a]pyridine Trifluoroacetate Salt]
12 | 1000 to 10000 | 100 to 1000 | Cc1nnc2ccc3c(cc(CCO)n3Cc3ccccc3)n12 [Example 61, 2-(6-benzyl-1-methyl-6H-pyrrolo[2,3-e][1,2,4]triazolo[4,3-a]pyridin-7-yl)ethanol]
13 | ≤ 100 | ≤ 100 | Cc1nnc2ccc3c(cc(-c4ccn(CCC(=O)N(C)C)n4)n3Cc3ccccc3)n12 [Example 95, 3-[3-(6-benzyl-1-methyl-6H-pyrrolo[2,3-e][1,2,4]triazolo[4,3-a]pyridin-7-yl)-1H-pyrazol-1-yl]-N,N-dimethylpropanamide]
14 | ≤ 100 | ≤ 100 | Cc1nnc2ccc3c(cc(C(=O)NC4CCC4)n3Cc3ccccc3)n12 [Example 85, 6-benzyl-N-cyclobutyl-1-methyl-6H-pyrrolo[2,3-e][1,2,4]triazolo[4,3-a]pyridine-7-carboxamide]
15 | ≤ 100 | ≤ 100 | Cc1cc2c(ccc3nnc(C)n32)n1Cc1cccc(Cl)c1 [Example 9, 6-(3-chlorobenzyl)-1,7-dimethyl-6H-pyrrolo[2,3-e][1,2,4]triazolo[4,3-a]pyridine]
16 | 100 to 1000 | ≤ 100 | Cc1nnc2ccc3c(cc(-c4cncs4)n3Cc3ccccc3)n12 [Example 69, 6-benzyl-1-methyl-7-(1,3-thiazol-5-yl)-6H-pyrrolo[2,3-e][1,2,4]triazolo[4,3-a]pyridine]
17 | ≤ 100 | ≤ 100 | CCCNC(=O)c1cc2c(ccc3nnc(C)n32)n1Cc1ccccc1 [Example 83, 6-benzyl-1-methyl-N-propyl-6H-pyrrolo[2,3-e][1,2,4]triazolo[4,3-a]pyridine-7-carboxamide]
18 | ≤ 100 | ≤ 100 | Cc1cc2c(cc(NC(N)=O)c3nnc(C)n32)n1Cc1cccc(F)c1 [Example 235, 1-(6-(3-Fluorobenzyl)-1,7-dimethyl-6H-pyrrolo[2,3-e][1,2,4]triazolo[4,3-a]pyridin-4-yl)urea]

More lines, now with the values behind:

Row | Structure (SMILES) | IC50 (BRD4-BD1) [nM] | IC50 (BRD4-BD2) [nM]
19 | Cc1nnc2ccc3c(cc(C(=O)NC(C)(C)C)n3Cc3cccc(Cl)c3)n12 [Example 120, N-(tert-Butyl)-6-(3-chlorobenzyl)-1-methyl-6H-pyrrolo[2,3-e][1,2,4]triazolo[4,3-a]pyridine-7-carboxamide Trifluoroacetate Salt] | 100 to 1000 | 100 to 1000
20 | Cc1nnc2ccc3c(cc(-c4c[nH]cn4)n3Cc3ccccc3)n12 [Example 74, 6-benzyl-7-(1H-imidazol-4-yl)-1-methyl-6H-pyrrolo[2,3-e][1,2,4]triazolo[4,3-a]pyridine] | ≤ 100 | ≤ 100
21 | Cc1cc2c(cc(N[C@H]3CC[C@@H](N)CC3)c3nnc(C)n32)n1Cc1ccccc1 [Example 218, cis-N-(6-Benzyl-1,7-dimethyl-6H-pyrrolo[2,3-e][1,2,4]triazolo[4,3-a]pyridin-4-yl)cyclohexane-1,4-diamine] | ≤ 100 | ≤ 100
22 | CNC(=O)c1cc2c(ccc3nnc(C)n32)n1Cc1cccc(Cl)c1 [Example 99, 6-(3-chlorobenzyl)-N,1-dimethyl-6H-pyrrolo[2,3-e][1,2,4]triazolo[4,3-a]pyridine-7-carboxamide] | ≤ 100 | ≤ 100
23 | Cc1nnc2ccc3c(cc(-c4ccn(C5(CC#N)CN(S(C)(=O)=O)C5)n4)n3Cc3ccccc3)n12 [Example 92, [3-[3-(6-benzyl-1-methyl-6H-pyrrolo[2,3-e][1,2,4]triazolo[4,3-a]pyridin-7-yl)-1H-pyrazol-1-yl]-1-(methylsulfonyl)azetidin-3-yl]acetonitrile] | ≤ 100 | ≤ 100
24 | Cc1cc2c(cc(N[C@H]3CC[C@H](N)CC3)c3nnc(C)n32)n1Cc1ccccc1 [Example 217, trans-N-(6-Benzyl-1,7-dimethyl-6H-pyrrolo[2,3-e][1,2,4]triazolo[4,3-a]pyridin-4-yl)cyclohexane-1,4-diamine] | ≤ 100 | ≤ 100
25 | Cc1cc2c(cc(NC(N)=O)c3nnc(C)n32)n1Cc1ccc(F)cc1F [Example 236, 1-(6-(2,4-Difluorobenzyl)-1,7-dimethyl-6H-pyrrolo[2,3-e][1,2,4]triazolo[4,3-a]pyridin-4-yl)urea] | ≤ 100 | ≤ 100
26 | Cc1cc2c(ccc3nnc(C)n32)n1Cc1cccc(CN2CCOCC2)c1 [Example 38, 1,7-dimethyl-6-[3-(morpholin-4-ylmethyl)benzyl]-6H-pyrrolo[2,3-e][1,2,4]triazolo[4,3-a]pyridine] | 100 to 1000 | ≤ 100
27 | Cc1nnc2ccc3c(cc(C(=O)NCCN4CCOCC4)n3Cc3cccc(Cl)c3)n12 [Example 119, 6-(3-Chlorobenzyl)-1-methyl-N-(2-morpholin-4-ylethyl)-6H-pyrrolo[2,3-e][1,2,4]triazolo[4,3-a]pyridine-7-carboxamide Trifluoroacetate Salt] | ≤ 100 | ≤ 100
28 | COCCNc1cc2c(cc(C)n2Cc2ccccc2)n2c(C)nnc12 [Example 209, 6-Benzyl-N-(2-methoxyethyl)-1,7-dimethyl-6H-pyrrolo[2,3-e][1,2,4]triazolo[4,3-a]pyridin-4-amine] | ≤ 100 | ≤ 100
29 | Cc1nnc2ccc3c(cc(-c4ccn(C)n4)n3Cc3cc(Cl)cc(CN4CCCC4)c3)n12 [Example 190, 6-[3-Chloro-5-(pyrrolidin-1-ylmethyl)benzyl]-1-methyl-7-(1-methyl-1H-pyrazol-3-yl)-6H-pyrrolo[2,3-e][1,2,4]triazolo[4,3-a]pyridine bis(trifluoroacetate) Salt] | ≤ 100 | ≤ 100
30 | Cc1cc2c(cc(NCCCN(C)C)c3nnc(C)n32)n1Cc1ccccc1 [Example 245, N1-(6-Benzyl-1,7-dimethyl-6H-pyrrolo[2,3-e][1,2,4]triazolo[4,3-a]pyridin-4-yl)-N3,N3-dimethylpropane-1,3-diamine] | ≤ 100 | ≤ 100
31 | Cc1nnc2ccc3c(cc(-c4ncco4)n3Cc3cccc(Cl)c3)n12 [Example 194, 6-(3-Chlorobenzyl)-1-methyl-7-(1,3-oxazol-2-yl)-6H-pyrrolo[2,3-e][1,2,4]triazolo[4,3-a]pyridine Trifluoroacetate Salt] | ≤ 100 | ≤ 100
32 | Cc1cc2c(ccc3nnc(C)n32)n1Cc1cccc(O)c1 [Example 23, 3-[(1,7-dimethyl-6H-pyrrolo[2,3-e][1,2,4]triazolo[4,3-a]pyridin-6-yl)methyl]phenol] | ≤ 100 | ≤ 100
